Data published in PMC8197275, “Novel Tdp1 Inhibitors Based on Adamantane Connected with Monoterpene Moieties via Heterocyclic Fragments” (Molecules, 2021).

Experiments:
Tdp1 = Tdp1 (Homo sapiens, UniProt Q9NUW8); assay: Tdp1 cleavage activity, fluorophore quencher-coupled DNA-biosensor, real-time; assay type: biochemical; set-up: inferred from the pET 16B vector and Ni-chelating resin purification; made in house; conditions: recombinant Tdp1 1.5 nM, 50 nM biosensor; read-out: IC50 (Tdp1 activity inhibition at 50%)
Sequence of Tdp1 (Q9NUW8 whole entry): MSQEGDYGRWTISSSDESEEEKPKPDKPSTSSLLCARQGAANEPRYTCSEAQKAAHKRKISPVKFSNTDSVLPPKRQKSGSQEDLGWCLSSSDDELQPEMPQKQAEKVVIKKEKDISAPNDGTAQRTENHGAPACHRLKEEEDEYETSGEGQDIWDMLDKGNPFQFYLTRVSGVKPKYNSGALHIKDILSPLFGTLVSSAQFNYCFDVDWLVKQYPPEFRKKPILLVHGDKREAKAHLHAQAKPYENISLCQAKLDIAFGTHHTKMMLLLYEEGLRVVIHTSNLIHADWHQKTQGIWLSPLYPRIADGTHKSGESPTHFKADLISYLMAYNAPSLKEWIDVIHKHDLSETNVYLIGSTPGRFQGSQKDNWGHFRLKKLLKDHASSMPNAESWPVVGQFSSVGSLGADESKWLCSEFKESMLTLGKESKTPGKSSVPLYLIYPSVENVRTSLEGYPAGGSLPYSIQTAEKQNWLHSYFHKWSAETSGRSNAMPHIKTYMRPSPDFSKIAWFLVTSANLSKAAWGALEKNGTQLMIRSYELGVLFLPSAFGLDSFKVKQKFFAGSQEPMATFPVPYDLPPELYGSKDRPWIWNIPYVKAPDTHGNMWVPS
Method: The recombinant Tdp1 was purified to homogeneity by chromatography on Ni-chelating resin and phosphocellulose P11 as described, using plasmid pET 16B-Tdp1, kindly provided by Dr. K.W. Caldecott (University of Sussex, United Kingdom). Tdp1 activity was detected as described in the work. Briefly, we measured the fluorescence intensity after quencher removal from a fluorophore quencher–coupled DNA oligonucleotide catalyzed by Tdp1. The reaction was carried out at different concentrations of inhibitors. The control samples contained 1% DMSO. The reaction mixtures contained Tdp1 buffer (50 mM Tris-HCl pH 8.0, 50 mM NaCl, and 7 mM β-mercaptoethanol), 50 nM biosensor, and an inhibitor being tested. The reaction was started by the addition of purified Tdp1 (1.5 nM). The biosensor (5′-[FAM] AAC GTC AGGGTC TTC C [BHQ]-3′) was synthesized in the Laboratory of Biomedical Chemistry at the Institute of Chemical Biology and Fundamental Medicine (Novosibirsk, Russia).
The reactions were incubated on a POLARstar OPTIMA fluorimeter (BMG LAB-TECH, GmbH) to measure fluorescence every 55 s (ex. 485 nm/em. 520 nm) during the linear phase (here, data are from minute 0 to minute 8). The values of IC50 were determined using a six-point concentration response curve in a minimum of three independent experiments, and were calculated using MARS Data Analysis 2.0 (BMG LABTECH).

HEK293A cells = assay: Cytotoxicity on noncancerous cell line HEK293A (EZ4U); assay type: cell-based, human; conditions: concentrations up to 30 μM; data not shown
Method: (§1) The cytotoxicity of compounds was investigated using HeLa (cervical cancer), SW837 and HCT-116 (colon cancers) cell lines, and the results are shown in Table 1 and Figure S2 in the Supplementary Materials. […] In general, the HeLa cell line was less sensitive to the inhibitors than the HCT-116 and SW837 cells.
(§2) The human cervical cancer HeLa cells were grown in Iscove’s modified Dulbecco’s medium (IMDM) with 40 μg/mL gentamicin, 50 IU/mL penicillin, 50 μg/mL streptomycin (MP Biomedicals), and 10% of fetal bovine serum (Biolot) in a 5% CO2 atmosphere. Human colon adenocarcinoma HCT-116, rectum adenocarcinoma SW837, and human embryo kidney HEK293A cell lines were cultured in DMEM medium (Invitrogen) supplemented with 10% fetal bovine serum (FBS) (Invitrogen), penicillin (100 units/mL), and streptomycin (100 μg/mL), at 37 °C, 5% CO2 in a humid atmosphere. After the formation of a 30–50% monolayer, the tested compounds were added to the medium. The volume of the added reagents was 1/100 of the total volume of the culture medium, and the amount of DMSO was 1% of the final volume. Control cells were grown in the presence of 1% DMSO. The cell culture was monitored for 3 days.
(§3) The cytotoxicity of the compounds to HeLa and HEK293A cell lines was examined using the EZ4U Cell Proliferation and Cytotoxicity Assay (Biomedica, Austria), according to the manufacturer’s protocols.

[1] = Cytotoxicity, MTT test, SW837; assay type: cell-based; conditions: human, SW837 cells; colorectal SW837, 72 h MTT
Method: as §1, §2
(§4) The medium was removed, and the dark blue crystals of formazan were dissolved in 100 μL of isopropanol. The absorbance at 570 nm (peak) and 620 nm (baseline) was determined using a microplate reader Multiscan FC (Thermo Fisher Scientific Corporation). All concentrations were performed in triplicate. The values are given as mean ± standard deviation (S.D.) values, and all measurements were repeated three times.

[2] = Cytotoxicity, MTT test, HCT-116; assay type: cell-based; conditions: human, HCT-116 cells; colorectal HCT-116, 72 h MTT
Method: as §1, §2, §4

[3] = Cytotoxicity, EZ4U Cell Proliferation and Cytotoxicity Assay, HeLa; assay type: cell-based; conditions: human, HeLa cells, cervical cancer HeLa
Method: as §1, §2, §3

HCT-116 cells = assay: Sensitizing of HCT-116 cells to topotecan by Tdp1 inhibitors; assay type: cell-based, human; conditions: for HCT116 CC50 of topotecan with Tdp1 inhibitor: human, 72 h
Method: (§5) The potential for sensitizing the cancer cell lines to topotecan using the Tdp1 inhibitors was investigated using the MTT assay. Neutralizing the enzymatic activity of Tdp1 by blocking access to its catalytic site using a small molecule should sensitize the cytotoxic potential of topotecan, since the complex of Top1 with DNA cannot be unraveled. […] Nontoxic concentrations of the adamantane derivatives (5 μM) were used for the HeLa cell line; the dose response for topotecan was measured and the corresponding CC50 values were derived, and the results are shown in Figure 4 for 20c and in Table 2 for all the derivatives.
(§6) For HeLa cells, increased cytotoxicity was seen when the adamantanes and topotecan were combined. […] The combination index (CI) for different concentrations of topotecan and 20c at 5 μM was in the range 0.49–0.82, and at 10 μM of 20c, it was 0.23–0.78. This indicates a synergistic effect of topotecan and 20c. The CI values were calculated with the CompuSyn version 1.0 software. For the HCT-116 cells, the synergistic effects of the compounds were different than for the HeLa cells. […] The CI plot at a different fraction affected (Fa) was determined for topotecan (5, 15, 150, 500 and 1500 nM) and 20g (1, 3, 10, 20 μM). The CI values for most of the combinations correspond to a synergistic effect (CI < 1, see Figure S3 in the Supplementary Materials).
as §2, §4

HeLa cells = assay: Sensitizing of HeLa cells to topotecan by Tdp1 inhibitors; assay type: cell-based, human; conditions: for combination index (CI) with topotecan: HeLa, different concentrations of topotecan, CompuSyn; for HeLa CC50 of topotecan with Tdp1 inhibitor: human, 3 days, 5 µM
Method: as §5, §6, §2, §3

[4] = Solubility remark during biological testing; assay type: physicochemical; conditions: remark in words

Compound | IC50 (Tdp1) [µM] | effect on cell viability, HEK293A (HEK293A cells) | CC50 at 72 h [1] [µM] | CC50 at 72 h [2] [µM] | CC50 at 3 days [3] [µM] | HCT116 CC50 of topotecan with Tdp1 inhibitor (HCT-116 cells; 15 µM) | potentiation of the cytotoxic potency of topotecan (HeLa cells) [×] | combination index (CI) with topotecan (HeLa cells; inhibitor at 5 μM) | combination index (CI) with topotecan (HeLa cells; inhibitor at 10 μM) | HeLa CC50 of topotecan with Tdp1 inhibitor (HeLa cells) [µM] | combination index (CI) with topotecan (HCT-116 cells; HCT-116, topotecan 5-1500 nM, inhibitor 1, 3, 10, 20 μM, most of the combinations) | HCT116 CC50 of topotecan with Tdp1 inhibitor (HCT-116 cells; 20 µM) | solubility [4] | melting point [°C]
CC(C)=CCC/C(C)=C/CSc1n[nH]c(C23CC4CC(CC(C4)C2)C3)n1 [20c, 5-(Adamantan-1-yl)-3-(((E)-3,7-dimethylocta-2,6-dien-1-yl)thio)-1H-1,2,4-triazole] | 5.3 ± 1.7 | no effect on cell viability | 41 ± 6 | 16 ± 7 | 64 ± 6 | 460.0 (15) nM | 3 | 0.49–0.82 | 0.23–0.78 | 1.9 | – | – | – | –
CC1(C)[C@H]2CC=C(CCSc3n[nH]c(C45CC6CC(CC(C6)C4)C5)n3)[C@@H]1C2 [20g, 5-(Adamantan-1-yl)-3-((2-((1R,5S)-6,6-dimethylbicyclo[3.1.1]hept-2-en-2-yl)ethyl)thio)-1H-1,2,4-triazole] | 0.57 ± 0.14 | no effect on cell viability | 40 ± 4 | 34 ± 6 | 74 ± 17 | – | – | – | – | 2.6 | < 1 | 235.8 (20) nM | – | –
CC(C)=CCCC(C)CC(=O)Nc1nnc(C23CC4CC(CC(C4)C2)C3)s1 (centres unmarked) [25b, N-(5-(Adamantan-1-yl)-1,3,4-thiadiazol-2-yl)-3,7-dimethyloct-6-enamide] | 2.59 ± 0.48 | – | 83 ± 8 | 66 ± 6 | > 100 | – | – | – | – | 2.9 | – | 611.9 (20) nM | poor solubility | –
C=C(C)[C@@H]1CC=C(C(=O)Nc2nnc(C34CC5CC(CC(C5)C3)C4)s2)CC1 [25d, (S)-N-(5-(adamantan-1-yl)-1,3,4-thiadiazol-2-yl)-4-(prop-1-en-2-yl)cyclohex-1-ene-1-carboxamide] | – | – | – | – | – | – | – | – | – | – | – | – | poor solubility | 265.6
CC(C)CCCC(C)CC(=O)NC12CC3CC(CC(C3)C1)C2 (centres unmarked) [26a, N-(Adamantan-1-yl)-3,7-dimethyloctanamide] | > 15 | – | – | – | – | – | – | – | – | – | – | – | – | 97.9
